Assay results from ChEMBL document CHEMBL5512602, “Unlocking the synthetic approaches and clinical application of approved small-molecule drugs for gastrointestinal cancer treatment: A comprehensive exploration” (Eur J Med Chem, 2023).

Legend:
[1] = target: Vascular endothelial growth factor receptor 2 (Homo sapiens, UniProt P35968); experiment: Inhibition of human recombinant VEGFR2 by FRET based Z-LYTE kinase assay
A-375 = experiment: Antiproliferative activity against human A-375 cells harboring BRAF V600E mutant assessed as reduction in cell growth; assay type: functional, cell-based

Vascular endothelial growth factor receptor 2, sequence (P35968 whole entry): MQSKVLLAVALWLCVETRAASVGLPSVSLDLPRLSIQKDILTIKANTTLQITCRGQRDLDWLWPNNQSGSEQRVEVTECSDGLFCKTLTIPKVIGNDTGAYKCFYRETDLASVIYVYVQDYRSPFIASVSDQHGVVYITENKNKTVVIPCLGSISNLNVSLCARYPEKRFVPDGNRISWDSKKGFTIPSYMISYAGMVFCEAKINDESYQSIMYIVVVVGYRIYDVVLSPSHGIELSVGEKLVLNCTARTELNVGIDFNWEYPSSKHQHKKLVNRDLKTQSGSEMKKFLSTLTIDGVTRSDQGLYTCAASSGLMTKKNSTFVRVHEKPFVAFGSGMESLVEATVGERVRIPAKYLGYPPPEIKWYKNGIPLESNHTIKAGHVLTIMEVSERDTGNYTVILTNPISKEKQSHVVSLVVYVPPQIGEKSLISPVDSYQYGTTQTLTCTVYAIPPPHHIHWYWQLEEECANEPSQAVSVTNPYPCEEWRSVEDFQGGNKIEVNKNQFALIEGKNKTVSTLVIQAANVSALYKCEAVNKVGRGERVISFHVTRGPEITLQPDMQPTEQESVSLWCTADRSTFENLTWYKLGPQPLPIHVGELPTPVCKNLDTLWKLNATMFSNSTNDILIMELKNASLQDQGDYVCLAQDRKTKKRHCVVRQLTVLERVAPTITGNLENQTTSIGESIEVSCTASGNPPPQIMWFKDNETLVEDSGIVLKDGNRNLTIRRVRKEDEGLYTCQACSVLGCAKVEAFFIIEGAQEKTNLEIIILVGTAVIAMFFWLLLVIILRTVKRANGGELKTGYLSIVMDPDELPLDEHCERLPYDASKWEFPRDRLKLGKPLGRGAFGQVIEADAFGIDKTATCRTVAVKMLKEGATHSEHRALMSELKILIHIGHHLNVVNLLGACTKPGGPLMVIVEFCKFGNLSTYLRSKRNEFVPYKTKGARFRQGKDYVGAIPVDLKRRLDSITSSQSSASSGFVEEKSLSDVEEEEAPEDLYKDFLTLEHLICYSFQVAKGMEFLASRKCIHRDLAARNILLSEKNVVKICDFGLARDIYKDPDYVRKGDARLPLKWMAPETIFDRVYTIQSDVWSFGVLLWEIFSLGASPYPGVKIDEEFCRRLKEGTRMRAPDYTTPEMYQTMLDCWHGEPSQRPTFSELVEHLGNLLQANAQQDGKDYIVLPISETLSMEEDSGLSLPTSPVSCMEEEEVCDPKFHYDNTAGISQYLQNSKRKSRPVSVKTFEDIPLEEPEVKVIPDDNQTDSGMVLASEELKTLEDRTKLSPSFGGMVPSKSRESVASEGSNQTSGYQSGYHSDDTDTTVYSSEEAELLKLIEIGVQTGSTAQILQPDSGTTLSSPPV

IC50 [1] | EC50 (A-375) | SMILES
0.35 nM | – | CNC(=O)c1c(C)oc2cc(Oc3ncnc4cc(OC)c(OC)cc34)ccc12 [FRUQUINTINIB]
– | 4 nM | COC(=O)N[C@@H](C)CNc1nccc(-c2cn(C(C)C)nc2-c2cc(Cl)cc(NS(C)(=O)=O)c2F)n1 [ENCORAFENIB]
